Patent publication US10117430B2, “Malononitrile compounds for controlling animal pests” (BASF SE, priority 2012, dated 2018)

Key:
Assay type in all cases: in vivo
[1] = test system: Rice brown plant hopper (Nilaparvata lugens); assay: B.11 Rice brown plant hopper test on sprayed rice seedlings; settings: in comparison with untreated controls, after 72 hours
In short: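 Compounds formulated in 50:50 acetone:water with 0.1% vol/vol surfactant and sprayed onto potted rice seedlings. Air-dried plants were caged, infested with 10 adults and held at about 28-29 °C, 50-60% RH. Percent mortality scored after 72 hours.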

[2] = test system: Green Peach Aphid (Myzus persicae); assay: B.13 Green peach aphid test on sprayed bell pepper plants; settings: 120 h, in comparison with untreated controls, after 5 days
Description: B.13 Green Peach Aphid (Myzus persicae)
The active compounds were formulated in cyclohexanone as a 10,000 ppm solution supplied in tubes. The tubes were inserted into an automated electrostatic sprayer equipped with an atomizing nozzle and they served as stock solutions for which lower dilutions were made in 50% acetone:50% water (v/v). A nonionic surfactant (Kinetic®) was included in the solution at a volume of 0.01% (v/v). Bell pepper plants at the first true-leaf stage were infested prior to treatment by placing heavily infested leaves from the main colony on top of the treatment plants. Aphids were allowed to transfer overnight to accomplish an infestation of 30-50 aphids per plant and the host leaves were removed. The infested plants were then sprayed by an automated electrostatic plant sprayer equipped with an atomizing spray nozzle. The plants were dried in the sprayer fume hood, removed, and then maintained in a growth room under fluorescent lighting in a 24-hr photoperiod at about 25° C. and about 20-40% relative humidity. Aphid mortality on the treated plants, relative to mortality on untreated control plants, was determined after 5 days.

[3] = test system: Silverleaf Whitefly (Bemisia argentifolii); assay: B.5 Silverleaf whitefly test on sprayed cotton plants; settings: 72 h, in comparison with untreated controls, 3 days after treatment
In short: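 Cotyledon-stage cotton plants were electrostatically sprayed with compound diluted from a 10,000 ppm cyclohexanone stock into 50% acetone/water with 0.01% nonionic surfactant. After drying, 10–12 adult whiteflies (3–5 days old) were released onto each plant. Mortality was scored after 3 days at 25 °C and 20–40% RH against untreated plants.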

N#CC(C#N)(Cc1ccc(C(F)(F)F)nc1)c1cc(F)cc(F)c1 [II-34]
≥ 75%: mortality at 300 ppm [1] | mortality at 300 ppm [2] | mortality at 500 ppm [3]
